The term IC50 denotes the concentration at which inhibition is half-maximal.

What all share (format): cell-based
Assay [1] deals with MV-4-11. The assay is described as follows: Proliferation inhibition (CellTiter-Glo) in MV-4-11 cells. To be noted: Homo sapiens, MV4-11, 96 h, MV-4-11 AML cells, homozygous FLT3-ITD, IC50 (4 days). An excerpt:
(§1) The Proliferation Inhibitory Effect was Investigated in Human AML Cell Lines MOLM-13 (AddexBio: C0003003) [REF: Pubmed: 9305600] and MV-4-11 (ATCC: CRL-9591) [REF PMID: 3496132], and CML cell line […] (ATCC: CRL-3343) [REF PMID: 163658]. Molm-13 is heterozygous for FLT3-ITD mutation, while MV4-11 is homozygous for FLT3-ITD [PMID: 12529668]. […] Cells were maintained in RPMI-1640 medium (ThermoFisher catalog no. 61870036) supplemented with 10% of Heat Inactivated FBS (ThermoFisher catalog no.A31605) and 1% Pen-Strep (Thermofisher catalog no. 10378016) and cultured at 37° C. in a humidified incubator with 5% CO2. Cell lines were […], and the cells were maintained in a range 70%-80% confluency.
(§2) ATP is present in all metabolically active cells and is considered as a marker for cell viability and proliferation. Metabolic cell activity was determined using the CellTiter-Glo kit (Promega catalog no. G7572), an ATP monitoring system based on the production of luminescence by the reaction of ATP with added UltraGlo® recombinant luciferase (Kawano et al., 2016, PLOS One, 8; 11(7):e0158888), according to the supplier's experimental recommendations. The assay was based on a 96 well plate format.
(§3) Test compounds were dissolved at 10 mM in DMSO (Sigma catalog no. D8418; purity 299.9%) and stored at −20° C. Eight concentrations of test compound were assessed in duplicate in an individual test occasion in parallel in the selected cell lines. Gilteratinib and FF-10101 were used as reference compounds and tested in duplicate at eight concentrations. 100% of proliferation is represented by the untreated cells (0.2% DMSO).
(§4) On the day of the experiment (TO), cells were quantified with the cell viability analyser NucleoCounter (Chemometec NC-200) and diluted with fresh medium to obtain the cell density of about 10,000 cells per 200 μL medium. 200 μL of cell suspension were added into wells in the 96 well plate.
(§5) After 2 hours from seeding cells, compounds were added using a D300e compound dispenser (Life Sciences Tecan D300) at desired concentrations with shaking between each compound dispensed. Cell plates containing 200 μL/well suspension were incubated at 37° C. in a humidified incubator with […].
(§6) […] Contents were mixed for 5 min on an orbital shaker to induce cell lysis, and then incubated at room temperature for an additional 10 min in the dark to stabilize the luminescent signal. Luminescence was read by using a GloMax GM300 plate reader (Promega) using the luminescence for 96 well plate standard protocol.
(§7) Results were analysed by GraphPad (Prism) and IC50 values were calculated by non-linear regression using four parameter-logistic equation.
In general terms: ATP-based viability assays read luminescence as a measure of living cells.

Assay [2] has as its system MOLM-13. The assay is described as follows: Proliferation inhibition (CellTiter-Glo) in MOLM-13 cells. The conditions noted are these: Homo sapiens, 96 h, MOLM-13 AML cells, heterozygous FLT3-ITD, IC50 (4 days).
Source text: as §1, §2, §3, §4, §5, §6, §7

In assay [3] the test system is K-562. Put plainly: Proliferation inhibition (CellTiter-Glo) in K-562 cells. The conditions noted are these: Homo sapiens, K562, 96 h, K-562 CML cells, no FLT3 mutations, IC50 (4 days).
Source text: as §1, §2, §3, §4, §5, §6, §7

SMILES strings stand for the structures.

For the compound `CCc1nc(C(N)=O)c(Nc2cccc(OCCCNC(=O)[C@H](C)N(C)C(=O)/C=C/CN(C)C)c2)nc1NC(CC)CC` [Compound 122, (S,E)-3-((3-(3-(2-(4-(dimethylamino)-N-methylbut-2-enamido)propanamido)propoxy)phenyl)amino)-6-ethyl-5-(pentan-3-ylamino)pyrazine-2-carboxamide], the IC50 in assay [1] is under 1 nM; in assay [2] it was under 1 nM; in assay [3] it was over 500 nM.
`C=CC(=O)NCCCNc1cc(Nc2nc(NC3CCOCC3)c(CC)nc2C(N)=O)ccn1` [Compound 24, 3-((2-((3-Acrylamidopropyl)amino)pyridin-4-yl)amino)-6-ethyl-5-((tetrahydro-2H-pyran-4-yl)amino)pyrazine-2-carboxamide]: the IC50 in assay [1] was 10 to 100 nM; in assay [2] it was 10 to 100 nM; in assay [3], over 500 nM.
For `C=CC(=O)NCCC#Cc1cccc(Nc2nc(NC3CCOCC3)c(CC)nc2C(N)=O)c1` [Compound 11, 3-((3-(4-Acrylamidobut-1-yn-1-yl)phenyl)amino)-6-ethyl-5-((tetrahydro-2H-pyran-4-yl)amino)pyrazine-2-carboxamide], the 50% inhibitory concentration (IC50) was 10 to 100 nM in assay [1], 10 to 100 nM in assay [2] and over 500 nM in assay [3].
Consider `CC#CC(=O)NCCCNc1cc(Nc2nc(NC3CCOCC3)c(CC)nc2C(N)=O)ccn1` [Compound 26, 3-((2-((3-(But-2-ynamido)propyl)amino)pyridin-4-yl)amino)-6-ethyl-5-((tetrahydro-2H-pyran-4-yl)amino)pyrazine-2-carboxamide], for which the figures for the half-inhibitory concentration (IC50) in assay [1], in assay [2] and in assay [3] were 10 to 100 nM, 100 to 500 nM and over 500 nM, respectively.
As to `C=CS(=O)(=O)NCCCNc1cc(Nc2nc(NC3CCOCC3)c(CC)nc2C(N)=O)ccn1` [Compound 27, 6-Ethyl-5-((tetrahydro-2H-pyran-4-yl)amino)-3-((2-((3-(vinylsulfonamido)propyl)amino)pyridin-4-yl)amino)pyrazine-2-carboxamide], the results for the IC50 in assay [1], in assay [2] and in assay [3] were 10 to 100 nM, 10 to 100 nM and over 500 nM, respectively.
For the compound `C=CC(=O)N(C)[C@@H](C)C(=O)NCC#Cc1cccc(Nc2nc(NC3CCOCC3)c(CC)nc2C(N)=O)c1` [Compound 17, (S)-6-Ethyl-3-((3-(3-(2-(N-methylacrylamido)propanamido)prop-1-yn-1-yl)phenyl)amino)-5-((tetrahydro-2H-pyran-4-yl)amino)pyrazine-2-carboxamide], the half-inhibitory concentration (IC50) in assay [1] is under 1 nM; in assay [2], 1 to 10 nM; in assay [3] it was over 500 nM.
Regarding `CC#CC(=O)N(C)[C@@H](C)C(=O)NCCc1cccc(Nc2nc(C3CC3)c(C)nc2C(N)=O)c1` [Compound 235, (S)-5-cyclopropyl-6-methyl-3-((3-(2-(2-(N-methylbut-2-ynamido)propanamido)ethyl)phenyl)amino)pyrazine-2-carboxamide], the concentration for half-maximal inhibition (IC50) is 10 to 100 nM in assay [1], over 500 nM in assay [2] and over 500 nM in assay [3].
Regarding `CCc1nc(C(N)=O)c(Nc2cccc(OCCCNC(=O)[C@H](C)N(C)C(=O)/C=C/CN(C)C)c2)nc1N1CCC1` [Compound 148, (S,E)-5-(azetidin-1-yl)-3-((3-(3-(2-(4-(dimethylamino)-N-methylbut-2-enamido)propanamido)propoxy)phenyl)amino)-6-ethylpyrazine-2-carboxamide], the half-inhibitory concentration (IC50) is 1 to 10 nM in assay [1], 1 to 10 nM in assay [2] and over 500 nM in assay [3].
In the case of `CCc1nc(C(N)=O)c(Nc2cc(C#CCNC(=O)[C@H](C)N(C)C(=O)/C=C/CN(C)C)cc(OC)c2)nc1NC1CCOCC1` [Compound 103, 3-[3-[3-[[(2S)-2-[[(E)-4-(dimethylamino)but-2-enoyl]-methyl-amino]propanoyl]amino]prop-1-ynyl]-5-methoxy-anilino]-6-ethyl-5-(tetrahydropyran-4-ylamino)pyrazine-2-carboxamide], the IC50 in assay [1] was under 1 nM; in assay [2], 1 to 10 nM; in assay [3], over 500 nM.
Regarding `C#CC(=O)NCCCNc1cc(Nc2nc(NC3CCOCC3)c(CC)nc2C(N)=O)ccn1` [Compound 25, 6-Ethyl-3-((2-((3-propiolamidopropyl)amino)pyridin-4-yl)amino)-5-((tetrahydro-2H-pyran-4-yl)amino)pyrazine-2-carboxamide], the IC50 in assay [1] is 1 to 10 nM; in assay [2], 10 to 100 nM; in assay [3] it was 100 to 500 nM.
Regarding `CCc1nc(C(N)=O)c(Nc2cccc(OCCCNC(=O)[C@H](C)N(C)C(=O)/C=C/CN(C)C)c2)nc1NC1CCC(F)(F)CC1` [Compound 123, (S,E)-5-((4,4-difluorocyclohexyl)amino)-3-((3-(3-(2-(4-(dimethylamino)-N-methylbut-2-enamido)propanamido)propoxy)phenyl)amino)-6-ethylpyrazine-2-carboxamide], the half-maximal inhibitory concentration (IC50) in assay [1] was under 1 nM; in assay [2] it was 1 to 10 nM; in assay [3] it was over 500 nM.
On to `CCc1nc(C(=O)NC)c(Nc2cc(F)cc(OCCCNC(=O)C(C)N(C)C(=O)/C=C/CN(C)C)c2)nc1N(C)C` (stereo not drawn) [Compound 151, (E)-5-(dimethylamino)-3-((3-(3-(2-(4-(dimethylamino)-N-methylbut-2-enamido)propanamido)propoxy)-5-fluorophenyl)amino)-6-ethyl-N-methylpyrazine-2-carboxamide], for which the IC50 in assay [1], in assay [2] and in assay [3] was over 500 nM in each case.
As to `C=CC(=O)N(C)[C@@H](C)C(=O)NCCc1cc(Nc2nc(NC3CCOCC3)c(CC)nc2C(N)=O)cc(OC)c1` [Compound 109, 6-ethyl-3-[3-methoxy-5-[2-[[(2S)-2-[methyl(prop-2-enoyl)amino]propanoyl]amino]ethyl]anilino]-5-(tetrahydropyran-4-ylamino)pyrazine-2-carboxamide], the IC50 in assay [1] was 1 to 10 nM; in assay [2] it was 1 to 10 nM; in assay [3] it was over 500 nM.
With `C=CC(=O)N1CC(CC(=O)Nc2cccc(Nc3nc(NC4CCOCC4)c(CC)nc3C(N)=O)c2)C1` [Compound 105, 6-ethyl-3-[3-[[2-(1-prop-2-enoylazetidin-3-yl)acetyl]amino]anilino]-5-(tetrahydropyran-4-ylamino)pyrazine-2-carboxamide], the IC50 in assay [1] is 1 to 10 nM; in assay [2], 10 to 100 nM; in assay [3], over 500 nM.
As for `C=CC(=O)N1CCC(C(=O)Nc2cccc(Nc3nc(NC4CCOCC4)c(CC)nc3C(N)=O)c2)CC1` [Compound 102, 6-ethyl-3-[3-[(1-prop-2-enoylpiperidine-4-carbonyl)amino]anilino]-5-(tetrahydropyran-4-ylamino)pyrazine-2-carboxamide], the IC50 in assay [1] was 10 to 100 nM; in assay [2] it was 10 to 100 nM; in assay [3], over 500 nM.
On to `CCc1nc(C(N)=O)c(Nc2cccc(OCCCNC(=O)[C@H](C)N(C)C(=O)/C=C/CN(C)C)c2)nc1N(C)C1CCOCC1` [Compound 116, (S,E)-3-((3-(3-(2-(4-(dimethylamino)-N-methylbut-2-enamido)propanamido)propoxy)phenyl)amino)-6-ethyl-5-(methyl(tetrahydro-2H-pyran-4-yl)amino)pyrazine-2-carboxamide], for which the half-maximal inhibitory concentration (IC50) is under 1 nM in assay [1], under 1 nM in assay [2] and over 500 nM in assay [3].
